The results in this text go back to patent publication EP4563577A1, “NOVEL SALT OF IMIDAZO[1,2-A]PYRIDINE COMPOUND, CRYSTALLINE FORM THEREOF, AND PREPARATION METHOD” (Jeil Pharmaceutical Co., Ltd., priority 2022, dated 2024).

What is called AUC(0-inf) is total exposure, with the tail of the curve extrapolated. A higher AUC(0-inf) goes with more exposure. As a reminder, the AUC(0-t) is exposure summed from dosing to a finite time, without extrapolation to infinity. Higher therefore signals more exposure. A word on the Cmax: it is the peak of the concentration-time curve. One may read the Tmax as the time from dosing to the highest level.

Series [1] in a line: Bioavailability evaluation (pharmacokinetics after oral capsule administration). The conditions noted are these: fasted male beagle dogs, oral capsules, 10 mg/kg; for AUC(0-inf) / AUC(0-t) / Cmax / Tmax: dog, plasma. Type of series: in vivo. The procedure:
Bioavailability was evaluated with regard to azetidin-1-yl{8-[(2,6-dimethylbenzyl)amino]-2,3-dimethylimidazo[1,2-a]pyridin-6-yl}methanone citrate according to Example 4(1) of the present invention and azetidin-1-yl{8-[(2,6-dimethylbenzyl)amino]-2,3-dimethylimidazo[1,2-a]pyridin-6-yl}methanone obtained according to Preparation Example 1 as an comparative example. Specific pharmacokinetic experiments and evaluation methods are as follows.
Fasted male beagle dogs were orally administered with capsules at a dose of 10 mg/kg, and bled at 0.08, 0.25, 0.5, 1, 3, 5, 8, and 24 hours after administration. Blood collected in an amount of 3 ml each from the jugular vein was centrifuged to separate plasma, and stored frozen in a cryogenic freezer before analysis.
Plasma pretreatment was performed by a protein precipitation method. 300 ul of acetonitrile containing an internal standard (200 ng/ml of carbamazepine) was added to 100 ul of a plasma sample and mixed. After sufficiently mixing, the resulting mixture was centrifuged at 12,000 rpm for 10 minutes, after which the supernatant was transferred to an assay vial and injected into a LC-MS/MS to analyze a blood concentration of the compound.
Parameters of time to maximum plasma concentration (Tmax), maximum plasma concentration (Cmax), and area under the plasma-concentration time curve (AUC0-t, AUC0-inf) were obtained using PK Solution.

Series [2] can be described thus: Thermal and moisture stability under accelerated conditions (40±2°C, 75±5% RH). Type of series: physicochemical. The settings on record: for Moisture: criteria 1.0% or less; for Purity: criteria 99.0% or more; for Property: criteria: White to yellowish off-white powder. On the procedure:
(§1) An X-ray powder diffraction pattern was obtained through a solid phase detector over a range of 2° to 40° of a diffraction angle (2θ) with a 0.02° step size by using D8 Focus (Bruker ASX). The moisture content of the obtained sample was measured with an 870KF Titrino Plus (Metrohm) Karl-Fischer moisture meter. Immediately after preparing azetidin-1-yl{8-[(2,6-dimethylbenzyl)amino]-2,3-dimethylimidazo[1,2-a]pyridin-6-yl}methanone citrate according to Example 4(1) of the present invention, properties were confirmed with naked eyes, and the moisture content, purity, and XRD were measured, respectively. Subsequently, the same was primarily sealed in a polyethylene bag and then secondarily sealed in an aluminum bag, and then the properties were confirmed with naked eyes and the moisture content, purity, and XRD were also measured at one and six months after being stored under an accelerated condition of 40±2°C and 75±5% RH.

A short description of series [3]: Long-term storage stability (25±2°C, 60±5% RH). Type of series: physicochemical. The settings on record: for Moisture: criteria 1.0% or less; for Purity: criteria 99.0% or more; for Property: criteria: White to yellowish off-white powder. On the procedure:
as §1, with “at 12, 24” for “at one”, “and 36” for “and six”, “under the” for “under an accelerated”, “of 25±2°C” for “of 40±2°C”, “and 60±5%” for “and 75±5%”

Series [4] in a line: Short-term storage stability (heat/moisture), purity by HPLC. It counts as physicochemical. The procedure: Purity of azetidin-1-yl{8-[(2,6-dimethylbenzyl)amino]-2,3-dimethylimidazo[1,2-a]pyridin-6-yl}methanone citrate according to Example 4(1) of the present invention was measured, and then the purity was measured after being left at 60°C for four days. Purity measurements were performed by HPLC. In addition, with regard to azetidin-1-yl{8-[(2,6-dimethylbenzyl)amino]-2,3-dimethylimidazo[1,2-a]pyridin-6-yl}methanone citrate according to Example 4(1) of the present invention, the purity was measured after being left for two days under the condition of 75 to 90% humidity (RH).

A short description of series [5]: Photostability evaluation (discoloration observed with naked eyes). It counts as physicochemical. On the procedure:
It is determined to be suitable only when the white to yellowish off-white powder form is maintained as a solid property.

Setting [6] is: Immediately after preparation (Initial value).

Take `Cc1cccc(C)c1CNc1cc(C(=O)N2CCC2)cn2c(C)c(C)nc12` [Compound I (free base), Azetidin-1-yl{8-[(2,6-dimethylbenzyl)amino]-2,3-dimethylimidazo[1,2-a]pyridin-6-yl}methanone]: in series [1], the AUC(0-inf) came out at 2820 ng·h/mL, the AUC(0-t) is 2630 ng·h/mL, the concentration peaked (Cmax) at 262 ng/mL and the Tmax was 5 h.
Take `Cc1cccc(C)c1CNc1cc(C(=O)N2CCC2)cn2c(C)c(C)nc12.O=C(O)CC(O)(CC(=O)O)C(=O)O` [Citrate of Compound I, azetidin-1-yl{8-[(2,6-dimethylbenzyl)amino]-2,3-dimethylimidazo[1,2-a]pyridin-6-yl}methanone citrate]: the “XRD (Comparison with initial value)” value in series [2] (1 month, 40±2°C, 75±5% RH) is “Same”; in series [2] (6 months, 40±2°C, 75±5% RH), “Same”; in series [2] (setting [6]) it was “Same”; in series [3] (12 months, 25±2°C, 60±5% RH), “Same”; in series [3] (24 months, 25±2°C, 60±5% RH), “Same”; in series [3] (36 months, 25±2°C, 60±5% RH), “Same”. The “XRD (Comparison with initial value)” value in series [3] (setting [6]) is recorded as “Same”. Also, the Moisture in series [2] (1 month, 40±2°C, 75±5% RH) is 0.75%; in series [2] (6 months, 40±2°C, 75±5% RH), 0.15%; in series [2] (setting [6]), 0.74%; in series [3] (12 months, 25±2°C, 60±5% RH), 0.52%; in series [3] (24 months, 25±2°C, 60±5% RH), 0.45%; in series [3] (36 months, 25±2°C, 60±5% RH), 0.60%. Moreover, the Moisture in series [3] (setting [6]) stood at 0.74%. The Purity is on record as 99.97% in series [2] (1 month, 40±2°C, 75±5% RH); 99.96% in series [2] (6 months, 40±2°C, 75±5% RH); 99.96% in series [2] (setting [6]); 99.96% in series [3] (12 months, 25±2°C, 60±5% RH); 99.97% in series [3] (24 months, 25±2°C, 60±5% RH); 99.96% in series [3] (36 months, 25±2°C, 60±5% RH). In series [3] (setting [6]), this compound displayed a Purity of 99.96%. Moreover, the Property entry in series [2] (1 month, 40±2°C, 75±5% RH) is given as “Suitable”; in series [2] (6 months, 40±2°C, 75±5% RH), “Suitable”; in series [2] (setting [6]), “Suitable”; in series [3] (12 months, 25±2°C, 60±5% RH) it was “Suitable”; in series [3] (24 months, 25±2°C, 60±5% RH), “Suitable”; in series [3] (36 months, 25±2°C, 60±5% RH), “Suitable”. Moreover, the Property result in series [3] (setting [6]) is reported as “Suitable”. Besides, the “Purity (%)” value in series [4] (Humidity 75~90 %, Day 2) is reported as 99.976%; in series [4] (Initial value), 99.955%; in series [4] (Temperature 60°C, Day 4), 99.974%. This compound also showed an AUC(0-inf) in series [1] of 15200 ng·h/mL. This compound also showed an AUC(0-t) in series [1] of 15000 ng·h/mL. The compound also displayed a Cmax in series [1] of 3030 ng/mL. Also, the Tmax in series [1] was determined as 1 h. In series [1], the “AUC improvement relative to Comparative Example (compound I free base)” value is recorded as “five times or more”. For the same compound, in series [1], the “Cmax increase relative to Comparative Example (compound I free base)” value is not below 11 times. In addition, the color entry in series [5] (Initial value) was “White”; in series [5] (UV 200 watt (35 W), 25°C, humidity 60%), “Off-white”; in series [5] (Visible 1200k lux (35k lux), 25°C, humidity 60%), “Slightly off-white”.
